Reference: publication PMC6979384, “Characterization of the plant homeodomain (PHD) reader family for their histone tail interactions” (Epigenetics & Chromatin, 2020)

How the values were obtained:
Experiment in all cases: Histone peptide microarray
Type in all cases: binding, human
Conditions in all cases: sheet "Array Heatmap"
[1] = tested on: PHF2
Description: (§1) To more comprehensively define the histone interactions of the 31 PHD readers identified from the domain microarray analyses, we probed each on an alternate microarray platform containing a library of 293 synthetic histone peptides with single or combinatorial PTMs (Additional file 2: Figure S4 and Additional file 3: Table S2).
(§2) The 31 GST-tagged PHD readers identified in the PHD finger domain array were expressed and purified as previously. Histone peptide arrays and peptide pulldown assays were conducted as recently described (specifically, the optimized protocol from Petell et al. for the former).
(§3) Supplementary file 13072_2020_328_MOESM3_ESM.xlsx: Additional file 3: Table S2. […] Excel Tab Peptide List is a compiled list of the entire 293 histone peptide library with amino acid sequence ranges. […] Each number corresponds to the peptide number designated in Peptide List. Excel Tab Average Signals is a compiled set of binding data: chromatin reader at 0.5 μM vs. entire 293 peptide library. Data is presented as the average and standard deviation of 4 replicates. The average signals are colored to indicate signal intensity with green being strong and white being weak/low. […] Key: red= stronger relative binding; blue = weaker relative binding. Excel Tab Array info summary is a table summarizing the domains, sequence coverage, array signal range, and noise for each of the GST-tagged readers assayed on the peptide microarrays.

[2] = tested on: MORC3 (CW)
Description: as §1, §2, §3

[3] = tested on: DPF2 (PPC2W2)
Description: as §1, §2, §3

[4] = tested on: KDM5A (3)
Description: as §1, §2, §3

[5] = tested on: BAZ2B
Description: as §1, §2, §3

[6] = tested on: PHF23
Description: as §1, §2, §3

[7] = tested on: CHD5 (PCC)
Description: as §1, §2, §3

[8] = tested on: PHF13
Description: as §1, §2, §3

[9] = tested on: TRIM66 (PB)
Description: as §1, §2, §3

[10] = tested on: ING1
Description: as §1, §2, §3

[11] = tested on: TAF3
Description: as §1, §2, §3

[12] = tested on: PHRF1 (RP)
Description: as §1, §2, §3

[13] = tested on: BPTF (PB)
Description: as §1, §2, §3

[14] = tested on: KDM5B (1)
Description: as §1, §2, §3

[15] = tested on: RAG2
Description: as §1, §2, §3

[16] = tested on: SP140L
Description: as §1, §2, §3

[17] = tested on: ING4
Description: as §1, §2, §3

[18] = tested on: KDM4C (TTP)
Description: as §1, §2, §3

[19] = tested on: ING3
Description: as §1, §2, §3

[20] = tested on: ING2
Description: as §1, §2, §3

[21] = tested on: PHF21A
Description: as §1, §2, §3

[22] = tested on: KDM5A (1)
Description: as §1, §2, §3

[23] = tested on: MLL5
Description: as §1, §2, §3

[24] = tested on: KDM7A
Description: as §1, §2, §3

[25] = tested on: CHD4 (PPCC)
Description: as §1, §2, §3

[26] = tested on: AIRE (PP)
Description: as §1, §2, §3

[27] = tested on: DIDO1
Description: as §1, §2, §3

[28] = tested on: CHD5 (PPCC)
Description: as §1, §2, §3

[29] = tested on: ING5
Description: as §1, §2, §3

[30] = tested on: KDM5B (3)
Description: as §1, §2, §3

[31] = tested on: PHF8
Description: as §1, §2, §3

H2A (1-17): H2A 1-17 (SGRGKQGGKARAKAKTR; UniProt P0C0S8 2-18, looked up, fragment)
Array Heatmap signal, PHF2 ([1]; GST-tagged PHF2, arrays performed twice, total replicate number n = 4): 0.4566
Array Heatmap signal, MORC3 (CW) ([2]; GST-tagged MORC3 (CW), arrays performed twice, total replicate number n = 4): 0.3444
Array Heatmap signal, DPF2 (PPC2W2) ([3]; GST-tagged DPF2 (PPC2W2), arrays performed twice, total replicate number n = 4): 0.6154
Array Heatmap signal, KDM5A (3) ([4]; GST-tagged KDM5A (3), arrays performed twice, total replicate number n = 4): 0.3954
Array Heatmap signal, BAZ2B ([5]; GST-tagged BAZ2B, arrays performed twice, total replicate number n = 4): 0.3936
Array Heatmap signal, PHF23 ([6]; GST-tagged PHF23, arrays performed twice, total replicate number n = 4): 0.4782
Array Heatmap signal, CHD5 (PCC) ([7]; GST-tagged CHD5 (PCC), arrays performed twice, total replicate number n = 4): 0.7396
Array Heatmap signal, PHF13 ([8]; GST-tagged PHF13, arrays performed twice, total replicate number n = 4): 0.527
Array Heatmap signal, TRIM66 (PB) ([9]; GST-tagged TRIM66 (PB), arrays performed twice, total replicate number n = 4): 0.5087
Array Heatmap signal, ING1 ([10]; GST-tagged ING1, arrays performed twice, total replicate number n = 4): 0.4879
Array Heatmap signal, TAF3 ([11]; GST-tagged TAF3, arrays performed twice, total replicate number n = 4): 0.223
Array Heatmap signal, PHRF1 (RP) ([12]; GST-tagged PHRF1 (RP), arrays performed twice, total replicate number n = 4): 0.4275
Array Heatmap signal, BPTF (PB) ([13]; GST-tagged BPTF (PB), arrays performed twice, total replicate number n = 4): 0.2947
Array Heatmap signal, KDM5B (1) ([14]; GST-tagged KDM5B (1), arrays performed twice, total replicate number n = 4): 0.663
Array Heatmap signal, RAG2 ([15]; GST-tagged RAG2, arrays performed twice, total replicate number n = 4): 0.2183
Array Heatmap signal, SP140L ([16]; GST-tagged SP140L, arrays performed twice, total replicate number n = 4): 0.3296
Array Heatmap signal, ING4 ([17]; GST-tagged ING4, arrays performed twice, total replicate number n = 4): 0.3938
Array Heatmap signal, KDM4C (TTP) ([18]; GST-tagged KDM4C (TTP), arrays performed twice, total replicate number n = 4): 0.4226
Array Heatmap signal, ING3 ([19]; GST-tagged ING3, arrays performed twice, total replicate number n = 4): 0.4033
Array Heatmap signal, ING2 ([20]; GST-tagged ING2, arrays performed twice, total replicate number n = 4): 0.6045
Array Heatmap signal, PHF21A ([21]; GST-tagged PHF21A, arrays performed twice, total replicate number n = 4): 0.4214
Array Heatmap signal, KDM5A (1) ([22]; GST-tagged KDM5A (1), arrays performed twice, total replicate number n = 4): 0.4209
Array Heatmap signal, MLL5 ([23]; GST-tagged MLL5, arrays performed twice, total replicate number n = 4): 0.5078
Array Heatmap signal, KDM7A ([24]; GST-tagged KDM7A, arrays performed twice, total replicate number n = 4): 0.3435
Array Heatmap signal, CHD4 (PPCC) ([25]; GST-tagged CHD4 (PPCC), arrays performed twice, total replicate number n = 4): 0.5048
Array Heatmap signal, AIRE (PP) ([26]; GST-tagged AIRE (PP), arrays performed twice, total replicate number n = 4): 0.3792
Array Heatmap signal, DIDO1 ([27]; GST-tagged DIDO1, arrays performed twice, total replicate number n = 4): 0.6067
Array Heatmap signal, CHD5 (PPCC) ([28]; GST-tagged CHD5 (PPCC), arrays performed twice, total replicate number n = 4): 0.4702
Array Heatmap signal, ING5 ([29]; GST-tagged ING5, arrays performed twice, total replicate number n = 4): 0.2875
Array Heatmap signal, KDM5B (3) ([30]; GST-tagged KDM5B (3), arrays performed twice, total replicate number n = 4): 0.4194
Array Heatmap signal, PHF8 ([31]; GST-tagged PHF8, arrays performed twice, total replicate number n = 4): 0.3118

H2A (10-25): H2A 10-25 (ARAKAKTRSSRAGLQF; UniProt P0C0S8 11-26, looked up, fragment)
Array Heatmap value (peptide array signal) ([1]; PHF2, each array performed twice, total n = 4): 0.4378
Array Heatmap value (peptide array signal) ([2]; MORC3 (CW), each array performed twice, total n = 4): 0.3714
Array Heatmap value (peptide array signal) ([3]; DPF2 (PPC2W2), each array performed twice, total n = 4): 0.6893
Array Heatmap value (peptide array signal) ([4]; KDM5A (3), each array performed twice, total n = 4): 0.4414
Array Heatmap value (peptide array signal) ([5]; BAZ2B, each array performed twice, total n = 4): 0.4876
Array Heatmap value (peptide array signal) ([6]; PHF23, each array performed twice, total n = 4): 0.5294
Array Heatmap value (peptide array signal) ([7]; CHD5 (PCC), each array performed twice, total n = 4): 0.8105
Array Heatmap value (peptide array signal) ([8]; PHF13, each array performed twice, total n = 4): 0.6145
Array Heatmap value (peptide array signal) ([9]; TRIM66 (PB), each array performed twice, total n = 4): 0.5591
Array Heatmap value (peptide array signal) ([10]; ING1, each array performed twice, total n = 4): 0.5431
Array Heatmap value (peptide array signal) ([11]; TAF3, each array performed twice, total n = 4): 0.2598
Array Heatmap value (peptide array signal) ([12]; PHRF1 (RP), each array performed twice, total n = 4): 0.4431
Array Heatmap value (peptide array signal) ([13]; BPTF (PB), each array performed twice, total n = 4): 0.3546
Array Heatmap value (peptide array signal) ([14]; KDM5B (1), each array performed twice, total n = 4): 0.668
Array Heatmap value (peptide array signal) ([15]; RAG2, each array performed twice, total n = 4): 0.2471
Array Heatmap value (peptide array signal) ([16]; SP140L, each array performed twice, total n = 4): 0.3704
Array Heatmap value (peptide array signal) ([17]; ING4, each array performed twice, total n = 4): 0.4661
Array Heatmap value (peptide array signal) ([18]; KDM4C (TTP), each array performed twice, total n = 4): 0.5121
Array Heatmap value (peptide array signal) ([19]; ING3, each array performed twice, total n = 4): 0.4796
Array Heatmap value (peptide array signal) ([20]; ING2, each array performed twice, total n = 4): 0.647
Array Heatmap value (peptide array signal) ([21]; PHF21A, each array performed twice, total n = 4): 0.4834
Array Heatmap value (peptide array signal) ([22]; KDM5A (1), each array performed twice, total n = 4): 0.4831
Array Heatmap value (peptide array signal) ([23]; MLL5, each array performed twice, total n = 4): 0.5534
Array Heatmap value (peptide array signal) ([24]; KDM7A, each array performed twice, total n = 4): 0.3832
Array Heatmap value (peptide array signal) ([25]; CHD4 (PPCC), each array performed twice, total n = 4): 0.556
Array Heatmap value (peptide array signal) ([26]; AIRE (PP), each array performed twice, total n = 4): 0.4997
Array Heatmap value (peptide array signal) ([27]; DIDO1, each array performed twice, total n = 4): 0.6569
Array Heatmap value (peptide array signal) ([28]; CHD5 (PPCC), each array performed twice, total n = 4): 0.5571
Array Heatmap value (peptide array signal) ([29]; ING5, each array performed twice, total n = 4): 0.3701
Array Heatmap value (peptide array signal) ([30]; KDM5B (3), each array performed twice, total n = 4): 0.4449
Array Heatmap value (peptide array signal) ([31]; PHF8, each array performed twice, total n = 4): 0.3624
